{
  "source": "patent EP0384421A2",
  "about": "“Use of PAF antagonists in the treatment of pathologic changes of the blood gas” (BOEHRINGER INGELHEIM KG, priority 1989, dated 1990)",
  "key": {"[1]": {"test_system": "Methylparathion", "parameters": "species or system Ratten", "conditions": "in vivo", "text": "Die Bestimmung der Partialdrucke der nachfolgend aufgeführten Blutgase sowie die Bestimmung des pH-Wertes des Blutes sind ein Indiz dafür, daß eine Behandlungsmethode bei Organophosphorvergiftungen positiv anspricht.\nIn der Tabelle I sind der pH-Wert und die Partialdrucke von CO₂ und O₂ aufgeführt. Die Ergebnisse sind Mittelwerte die aus Versuchen an 6 bis 15 Ratten je Experiment erhalten wurden. […] Die Konzentration von Atropin und Web 2086 ist in der Tabelle angegeben und bezieht sich auf mg/kg i.v. Die Reihenfolge der Applikation ist in Spalte 1 der Tabelle angegeben. Die Blutentnahme erfolgt 5 Minuten nach der letzten Substanzgabe. Die Blutgas-Messung erfolgte mit einem \"Corning-Blood-Gas-Analyser 178\"."}, "[2]": {"test_system": "PAF", "test": "Acid-base balance and blood gases in arterial blood of rats after PAF and a PAF antagonist", "format": "in vivo, Ratten", "conditions": "for BE / HCO3 / O2sat / TCO2 / pCO2 / pO2 / ph: PAF 10 µg/kg i.v., rats; for pH-Wert-Erniedrigung: pH decrease caused by PAF 10 µg/kg i.v."}, "[3]": {"conditions": "PAF antagonist 1000 ug/kg i.v., arterial blood"}, "[4]": {"conditions": "PAF antagonist 100 ug/kg i.v., arterial blood"}},
  "note": "Several values for one entry are separate records, joined by “and”; a condition that tells them apart may be missing. Equal entries are not always repeated.",
  "data": [
    {"smiles": "CN1C2CCC1CC(OC(=O)C(CO)c1ccccc1)C2", "note": "(racemic) [Atropin, reference compound]", "values": [
      {"measurement": "pH", "setting": "[1]", "result": "7,43 and 7,21 and 6,97"}
    ]},
    {"smiles": "Cc1nnc2n1-c1sc(CCC(=O)N3CCOCC3)cc1C(c1ccccc1Cl)=NC2", "note": "[WEB 2086, 4-(2-Chlorphenyl)-9-methyl-2-[3-(4-morpholinyl)-3-propanon-1-yl]-6H-thieno[3,2-f][1,2,4]triazolo[4,3-a][1,4]diazepin]", "values": [
      {"measurement": "Blutgaswerte bei Phosphorsäureestervergiftungen", "setting": "[1]", "result": "positiv beeinflußt"},
      {"measurement": "PCO2", "setting": "[1]", "result": "73,0 and 58,9"},
      {"measurement": "PO2", "setting": "[1]", "result": "51,7 and 61,9"},
      {"measurement": "pH", "setting": "[1]", "result": "7,25 and 7,07"},
      {"measurement": "BE", "setting": "[2]; [3]", "result": -5.40},
      {"measurement": "HCO3", "setting": "[2]; [3]", "result": 19.8},
      {"measurement": "O2sat", "setting": "[2]; [3]", "result": 91.5},
      {"measurement": "TCO2", "setting": "[2]; [3]", "result": 20.9},
      {"measurement": "pCO2", "setting": "[2]; [3]", "result": 38.2},
      {"measurement": "pO2", "setting": "[2]; [3]", "result": 72.8},
      {"measurement": "ph", "setting": "[2]; [3]", "result": 7.32},
      {"measurement": "pH-Wert-Erniedrigung", "setting": "[2]", "result": "verhindert"}
    ]},
    {"smiles": "Cc1nnc2n1-c1sc3c(c1C(c1ccccc1Cl)=NC2)CC(C(=O)N1CCOCC1)C3", "note": "(centres unmarked) [WEB 2170, 6-(2-Chlorphenyl)-8,9-dihydro-1-methyl-8-[(4-morpholinyl)carbonyl]-4H,7H-cyclopenta[4,5]thieno[3,2-f][1,2,4]triazolo[4,3-a][1,4]diazepin]", "values": [
      {"measurement": "BE", "setting": "[2]; [4]", "result": 0.18},
      {"measurement": "HCO3", "setting": "[2]; [4]", "result": 22.9},
      {"measurement": "O2sat", "setting": "[2]; [4]", "result": 97.1},
      {"measurement": "TCO2", "setting": "[2]; [4]", "result": 23.9},
      {"measurement": "pCO2", "setting": "[2]; [4]", "result": 33.8},
      {"measurement": "pO2", "setting": "[2]; [4]", "result": 89.8},
      {"measurement": "ph", "setting": "[2]; [4]", "result": 7.44},
      {"measurement": "pH-Wert-Erniedrigung", "setting": "[2]", "result": "verhindert"}
    ]},
    {"smiles": "Cc1nnc2n1-c1sc3c(c1C(c1ccccc1Cl)=NC2)CC(CN1CCOCC1)C3", "note": "(centres unmarked) [STY 2108]", "values": [
      {"measurement": "BE", "setting": "[2]; [3]", "result": 0.42},
      {"measurement": "HCO3", "setting": "[2]; [3]", "result": 24.5},
      {"measurement": "O2sat", "setting": "[2]; [3]", "result": 96.8},
      {"measurement": "TCO2", "setting": "[2]; [3]", "result": 25.8},
      {"measurement": "pCO2", "setting": "[2]; [3]", "result": 39.5},
      {"measurement": "pO2", "setting": "[2]; [3]", "result": 90.4},
      {"measurement": "ph", "setting": "[2]; [3]", "result": 7.40},
      {"measurement": "pH-Wert-Erniedrigung", "setting": "[2]", "result": "verhindert"}
    ]},
    {"smiles": "Cc1nnc2n1-c1sc(Br)cc1C(c1ccccc1Cl)=NC2", "note": "[Brotizolam, reference compound]", "values": [
      {"measurement": "BE", "setting": "[2]; 10 mg/kg p.o.", "result": "-18,95"},
      {"measurement": "HCO3", "setting": "[2]; 10 mg/kg p.o.", "result": "7,88"},
      {"measurement": "O2sat", "setting": "[2]; 10 mg/kg p.o.", "result": "95,48"},
      {"measurement": "TCO2", "setting": "[2]; 10 mg/kg p.o.", "result": "8,57"},
      {"measurement": "pCO2", "setting": "[2]; 10 mg/kg p.o.", "result": "22,22"},
      {"measurement": "pO2", "setting": "[2]; 10 mg/kg p.o.", "result": "104,47"},
      {"measurement": "ph", "setting": "[2]; 10 mg/kg p.o.", "result": "7,17"},
      {"measurement": "BE", "setting": "[2]; 30 mg/kg p.o.", "result": "-3,32"},
      {"measurement": "HCO3", "setting": "[2]; 30 mg/kg p.o.", "result": "20,97"},
      {"measurement": "O2sat", "setting": "[2]; 30 mg/kg p.o.", "result": "94,43"},
      {"measurement": "TCO2", "setting": "[2]; 30 mg/kg p.o.", "result": "22,05"},
      {"measurement": "pCO2", "setting": "[2]; 30 mg/kg p.o.", "result": "35,53"},
      {"measurement": "pO2", "setting": "[2]; 30 mg/kg p.o.", "result": "87,42"},
      {"measurement": "ph", "setting": "[2]; 30 mg/kg p.o.", "result": "7,37"},
      {"measurement": "BE", "setting": "[2]; 100 mg/kg p.o.", "result": "-7,94"},
      {"measurement": "HCO3", "setting": "[2]; 100 mg/kg p.o.", "result": "16,38"},
      {"measurement": "O2sat", "setting": "[2]; 100 mg/kg p.o.", "result": "95,18"},
      {"measurement": "TCO2", "setting": "[2]; 100 mg/kg p.o.", "result": "17,34"},
      {"measurement": "pCO2", "setting": "[2]; 100 mg/kg p.o.", "result": "30,60"},
      {"measurement": "pO2", "setting": "[2]; 100 mg/kg p.o.", "result": "87,92"},
      {"measurement": "ph", "setting": "[2]; 100 mg/kg p.o.", "result": "7,33"},
      {"measurement": "Blutgas-stabilisierende Wirkung", "setting": "[2]; 10,30 und 100 mg/kg p.o., same experimental set-up", "result": "dosisabhängig"},
      {"measurement": "durch PAF-verursachte pH Wert-Verminderung", "setting": "[2]; 30 und 100 mg/kg", "result": "verhindert"},
      {"measurement": "Abnahme des CO₂-Partialdruckes und Abnahme des Basenüberschusses", "setting": "[2]; 30 und 100 mg/kg, PAF-induced", "result": "verhindert"}
    ]}
  ]
}
